Measured values: US10905122B2, “Use of tetrazolinones for combating resistant phytopathogenic fungi on cereals” (BASF SE, priority 2016, dated 2021)

Columns and labels:
Format in all cases: cell-based
[1] = tested on: sensitive isolate of Pyrenophora teres; test: Microtiter test against net blotch, sensitive isolate of Pyrenophora teres; details: Example 1B; 63 ppm; absorption at 405 nm 7 days after inoculation; 18° C.
Excerpt: (§1) Compound I according to the present invention is formulated separately as a stock solution having a concentration of 10000 ppm in dimethyl sulfoxide.
(§2) The stock solution of compound I according to the present invention was mixed according to the ratio, pipetted onto a micro titer plate (MTP) and diluted with water to the stated concentrations. A spore suspension of a sensitive and a QOI resistant isolate of Pyrenophora teres in an aqueous biomalt or yeast-bactopeptone-glycerine solution was then added. The plates were placed in a water vapor-saturated chamber at a temperature of 18° C. Using an absorption photometer, the MTPs were measured at 405 nm 7 days after the inoculation.

[2] = tested on: QOI resistant isolate of Pyrenophora teres; test: Microtiter test against net blotch, QOI resistant isolate of Pyrenophora teres; details: Example 1B; 63 ppm; absorption at 405 nm 7 days after inoculation; 18° C.
Excerpt: as §1, §2

[3] = tested on: QOI resistant isolate of Septoria tritici; test: Microtiter test against leaf blotch on wheat, QOI resistant isolate of Septoria tritici; details: 63 ppm, absorption at 405 nm 7 days after inoculation, 18° C.
Method: as §1
as §2, with “plate” for “plate (MTP)”, “Septoria tritici” for “Pyrenophora teres”
(§3) Compound I according to the present invention and compound 1-213 from prior art (WO2013/092224) were formulated separately as a stock solution having a concentration of 10000 ppm in dimethyl sulfoxide. The stock solutions of compound I according to the present invention and compound 1-213 from prior art (WO2013/092224) were mixed according to the ratio, pipetted onto a micro titer plate and diluted with water to the stated concentrations. A spore suspension of a sensitive and a QOI resistant isolate of Septoria tritici in an aqueous biomalt or yeast-bactopeptone-glycerine solution was then added. […] Using an absorption photometer, the MTPs were measured at 405 nm 7 days after the inoculation.

[4] = tested on: sensitive isolate of Septoria tritici; test: Microtiter test against leaf blotch on wheat, sensitive isolate of Septoria tritici; details: 63 ppm, absorption at 405 nm 7 days after inoculation, 18° C.
Method: as §1
as §2, with “plate” for “plate (MTP)”, “Septoria tritici” for “Pyrenophora teres”
as §3

Cc1cccc(-n2nnn(C)c2=O)c1COc1ccn(-c2ccc(Cl)cc2)n1 [compound I, 1-[2-[[1-(4-chlorophenyl)pyrazol-3-yl]oxymethyl]-3-methyl-phenyl]-4-methyl-tetrazol-5-one]
Growth (%) sensitive isolate of Pyrenophora teres. [1]: 6% | Growth (%) QOI resistant isolate of Pyrenophora teres [2]: 6% | Growth (%) QOI resistant isolate of Septoria tritici ([3]; Example 1A): 3% | Growth (%) QOI resistant isolate of Septoria tritici ([3]; Example 2 comparative): 3% | Growth (%) sensitive isolate of Septoria tritici ([4]; Example 1A): 0% | Growth (%) sensitive isolate of Septoria tritici ([4]; Example 2 comparative): 0%
